# Tested on: serum IgE from patients with documented peanut hypersensitivity
# Assay: IgE immunoblot mapping of human IgE binding epitopes on synthesized peanut antigen peptides
# Conditions: Ara h 3 epitope; 10 patients tested
# Experimental: (§1) IGE IMMUNOBLOT ANALYSIS: Membranes to be blotted were prepared either by SDS-PAGE (performed by the method of Laemmli Nature 227:680-685, 1970; incorporated herein by reference) of digested peanut antigen or by synthesis of antigen peptides on a derivativized cellulose membrane. SDS-PAGE gels were composed of 10% acrylamide resolving gel and 4% acrylamide stacking gel. Electrophoretic transfer and immunoblotting on nitrocellulose paper was performed by the procedures of Towbin (Proc. Natl. Acad. Sci. USA 76:4350-4354, 1979; incorporated herein by reference).
# […] […] At least 5 ml of venous blood was drawn from each patient and allowed to clot, and the serum was collected. All studies were approved by the Human Use Advisory Committee at the University of Arkansas for Medical Sciences. Serum was diluted in a solution containing TBS and 1% bovine serum albumin and incubated with antigen for at least 12 h at 4° C. or for 2 h at room temperature. The bound primary antibody was detected with ^125I-labeled anti-IgE antibody (Sanofi Diagnostics Pasteur Inc., Paris, France).
# PEPTIDE SYNTHESIS: Individual peptides were synthesized on a derivativized cellulose membrane using Fmoc amino acid active esters according to the manufacturer's instructions (Genosys Biotechnologies, Woodlands, Tex.). Fmoc-amino acid derivatives were dissolved in 1-methyl-2-pyrrolidone and loaded on marked spots on the membrane. Coupling reactions were followed by acetylation with a solution of 4% (v/v) acetic anhydride in N,N-dimethyl formamide (DMF). After acetylation, Fmoc groups were removed by incubation of the membrane in 20% (v/v) piperdine in DMF. The membrane was then stained with bromophenol blue to identify the location of the free amino groups. Cycles of coupling, blocking, and deprotection were repeated until the peptides of the desired length were synthesized. After addition of the last amino acid in the peptide, the amino acid side chains were deprotected using a solution of dichloromethane/trifluoroacetic acid/triusobutylsilante (1/10/0.05). Membranes were either probed immediately or stored at −20° C. until needed.
row,patients whose serum IgE recognized the epitope,Sequence
1,10,VTVRGGLRTLSPDRK [Ara h 3 epitope 3]

# Same assay, conditions: human IgE binding epitopes in Ara h 3
row,FRACTION OF PATIENTS WITH IGE THAT BIND,Sequence
1,4 (38%),DEDEYEYDEEDRRRG [Ara h 3 epitope 4]
2,2 (38%),GNIFSGFTPEFLEQA [Ara h 3 epitope 2]
3,1 (25%),IETWNPNNQEFECAG [Ara h 3 epitope 1]
4,3 (100%),VTVRGGLRTLSPDRK [Ara h 3 epitope 3]

# Tested on: serum IgE from mice sensitized to recombinant Ara h 2
# Assay: IgE immunoblot mapping of murine IgE binding epitopes in Ara h 2
# Conditions: mouse Ara h 2 epitopes; densitometric analysis of the blot
# Experimental: as §1
# For mapping of murine IgE binding sites, a blot containing overlapping 13 mer peptides, offset by 2 amino acids, was incubated with serum from peanut sensitized mice as described in U.S. patent application Ser. No. 09/455,294, filed Dec. 6, 1999; incorporated herein by reference.
# PEPTIDE SYNTHESIS: Individual peptides were synthesized on a derivativized cellulose membrane using Fmoc amino acid active esters according to the manufacturer's instructions (Genosys Biotechnologies, Woodlands, Tex.). Fmoc-amino acid derivatives were dissolved in 1-methyl-2-pyrrolidone and loaded on marked spots on the membrane. Coupling reactions were followed by acetylation with a solution of 4% (v/v) acetic anhydride in N,N-dimethyl formamide (DMF). After acetylation, Fmoc groups were removed by incubation of the membrane in 20% (v/v) piperdine in DMF. […]
row,Sequence,"contribution to the observed IgE reactivity, single epitope"
1,RCQSQLERA [mouse Ara h 2 epitope (3)],about 15%

# Tested on: T cell preparations
# Assay: T cell stimulation by 5/20 native Ara h 2 peptides
# Assay type: cell-based, human
# Conditions: analysis of 15 patients
# Experimental: Each peptide was tested, using standard techniques, on 19 different T cell preparations. Positive scores, defined as a T cell stimulation index of >2, are indicated by shading.
# Each of these peptides was tested for its ability to stimulate T cells. Each peptide was tested, using standard techniques, on 19 different T cell preparations. Positive scores, defined as a T cell stimulation index of >2, are indicated by shading.
# As discussed herein, it may sometimes be desirable to prepare blocking agent compositions comprising antigen fragments (e.g., IgE binding site and one or more T cell epitopes).
row,Sequence,single IgE site and T cell epitope in the same peptide
1,ALALFLLAAHASARQQWELQ [Peptide 2],both a single IgE site and a T cell epitope recognized by at least one person
2,LLAAHASARQQWELQGDRRC [Peptide 3],both a single IgE site and a T cell epitope recognized by at least one person
3,LMQKIQRDEDSYERDPYSPS [Peptide 10],both a single IgE site and a T cell epitope recognized by at least one person
4,LTILVALALFLLAAHASARQ [Peptide 1],both a single IgE site and a T cell epitope recognized by at least one person
5,PCEQHLMQKIQRDEDSYERD [Peptide 9],both a single IgE site and a T cell epitope recognized by at least one person
6,RANLRPCEQHLMQKIQRDED [Peptide 8],both a single IgE site and a T cell epitope recognized by at least one person
